According to the NIST ThermoML archive (doi:10.1016/j.jct.2005.02.004):

Test: mn = molality of the nth substance listed, in mol/kg
Settings: Liquid, Vibrating tube method

[Br-].[Br-].[Zn+2] [zinc bromide] + CO
Settings | mass density [kg/m3]
348.24 K, 320 kPa, m1 = 0.05772 | 749.2
348.24 K, 338 kPa, m1 = 1.951 | 1012.66
348.24 K, 4981 kPa, m1 = 0.05772 | 755.32
348.24 K, 4997 kPa, m1 = 1.951 | 1018.61
348.24 K, 9997 kPa, m1 = 0.05772 | 761.44
348.24 K, 10010 kPa, m1 = 1.951 | 1024.67
348.24 K, 14982 kPa, m1 = 0.05772 | 767.11
348.24 K, 14997 kPa, m1 = 1.951 | 1030.41
348.24 K, 19995 kPa, m1 = 1.951 | 1035.89
348.24 K, 20002 kPa, m1 = 0.05772 | 772.47
348.24 K, 25006 kPa, m1 = 1.951 | 1041.15
348.24 K, 25019 kPa, m1 = 0.05772 | 777.52
348.24 K, 29980 kPa, m1 = 1.951 | 1046.17
348.24 K, 29988 kPa, m1 = 0.05772 | 782.26
348.24 K, 34988 kPa, m1 = 0.05772 | 786.8
348.24 K, 34988 kPa, m1 = 1.951 | 1051.04
348.24 K, 39992 kPa, m1 = 1.951 | 1055.74
348.24 K, 39996 kPa, m1 = 0.05772 | 791.14
373.24 K, 509 kPa, m1 = 0.3785 | 775.13
373.24 K, 510 kPa, m1 = 0.7158 | 822.07
373.24 K, 4989 kPa, m1 = 0.3785 | 782.12
373.24 K, 5012 kPa, m1 = 0.7158 | 828.98
373.24 K, 9999 kPa, m1 = 0.7158 | 836.05
373.24 K, 10005 kPa, m1 = 0.3785 | 789.3
373.24 K, 14990 kPa, m1 = 0.7158 | 842.63
373.24 K, 14993 kPa, m1 = 0.3785 | 795.89
373.24 K, 19988 kPa, m1 = 0.7158 | 848.79
373.24 K, 20013 kPa, m1 = 0.3785 | 802.08
373.24 K, 24986 kPa, m1 = 0.3785 | 807.84
373.24 K, 25005 kPa, m1 = 0.7158 | 854.61
373.24 K, 29988 kPa, m1 = 0.3785 | 813.28
373.24 K, 29996 kPa, m1 = 0.7158 | 860.06
373.24 K, 35005 kPa, m1 = 0.3785 | 818.47
373.24 K, 35010 kPa, m1 = 0.7158 | 865.28
373.24 K, 39999 kPa, m1 = 0.3785 | 823.36
373.24 K, 40008 kPa, m1 = 0.7158 | 870.23
373.25 K, 530 kPa, m1 = 0.05772 | 722.55
373.25 K, 5013 kPa, m1 = 0.05772 | 729.6
373.25 K, 10010 kPa, m1 = 0.05772 | 736.76
373.25 K, 14996 kPa, m1 = 0.05772 | 743.34
373.25 K, 20007 kPa, m1 = 0.05772 | 749.46
373.25 K, 25002 kPa, m1 = 0.05772 | 755.2
373.25 K, 29988 kPa, m1 = 0.05772 | 760.57
373.25 K, 35011 kPa, m1 = 0.05772 | 765.68
373.25 K, 40009 kPa, m1 = 0.05772 | 770.5
373.26 K, 510 kPa, m1 = 1.951 | 982.6
373.26 K, 4981 kPa, m1 = 1.951 | 989.17
373.26 K, 9999 kPa, m1 = 1.951 | 996.08
373.26 K, 14998 kPa, m1 = 1.951 | 1002.57
373.26 K, 19990 kPa, m1 = 1.951 | 1008.69
373.26 K, 25011 kPa, m1 = 1.951 | 1014.53
373.26 K, 29987 kPa, m1 = 1.951 | 1020.09
373.26 K, 34996 kPa, m1 = 1.951 | 1025.43
373.26 K, 39999 kPa, m1 = 1.951 | 1030.56
398.25 K, 874 kPa, m1 = 0.7158 | 791.54
398.25 K, 875 kPa, m1 = 0.3785 | 744.91
398.25 K, 4997 kPa, m1 = 0.7158 | 799.23
398.25 K, 5007 kPa, m1 = 0.3785 | 752.83
398.25 K, 9995 kPa, m1 = 0.7158 | 807.74
398.25 K, 9997 kPa, m1 = 0.3785 | 761.43
398.25 K, 14982 kPa, m1 = 0.7158 | 815.46
398.25 K, 15016 kPa, m1 = 0.3785 | 769.33
398.25 K, 19995 kPa, m1 = 0.7158 | 822.66
398.25 K, 19996 kPa, m1 = 0.3785 | 776.5
398.25 K, 25004 kPa, m1 = 0.7158 | 829.32
398.25 K, 25013 kPa, m1 = 0.3785 | 783.19
398.25 K, 29995 kPa, m1 = 0.3785 | 789.37
398.25 K, 29999 kPa, m1 = 0.7158 | 835.55
398.25 K, 34983 kPa, m1 = 0.7158 | 841.37
398.25 K, 34995 kPa, m1 = 0.3785 | 795.22
398.25 K, 39988 kPa, m1 = 0.7158 | 846.94
398.25 K, 40001 kPa, m1 = 0.3785 | 800.74
398.27 K, 890 kPa, m1 = 1.951 | 951.2
398.27 K, 899 kPa, m1 = 0.05772 | 692.91
398.27 K, 4987 kPa, m1 = 1.951 | 958.29
398.27 K, 5013 kPa, m1 = 0.05772 | 700.92
398.27 K, 9996 kPa, m1 = 1.951 | 966.33
398.27 K, 10001 kPa, m1 = 0.05772 | 709.63
398.27 K, 14992 kPa, m1 = 0.05772 | 717.48
398.27 K, 14992 kPa, m1 = 1.951 | 973.78
398.27 K, 19995 kPa, m1 = 0.05772 | 724.66
398.27 K, 20001 kPa, m1 = 1.951 | 980.78
398.27 K, 24985 kPa, m1 = 0.05772 | 731.27
398.27 K, 25015 kPa, m1 = 1.951 | 987.36
398.27 K, 29996 kPa, m1 = 1.951 | 993.57
398.27 K, 30002 kPa, m1 = 0.05772 | 737.46
398.27 K, 34980 kPa, m1 = 1.951 | 999.48
398.27 K, 34994 kPa, m1 = 0.05772 | 743.23
398.27 K, 39999 kPa, m1 = 0.05772 | 748.68
398.27 K, 40007 kPa, m1 = 1.951 | 1005.18
